Legend:
129S1/SvImJ mice = experiment: SJS/TEN mouse model (daily oral gavage of causative drug); assay type: in vivo; conditions: for TUNEL-positive dead epithelial cells in paw: LTG oral daily
Method: Eight-to-ten week old male mice were orally gavaged with either causative drugs (LTG, allopurinol, oxcarbazepine) suspended in saline or saline once daily. The dosage was based on milligrams per kilogram of animal's body weight as indicated (for example, LTG 50 mg kg^−1 body weight). Skin, eyes, and mucosa, survival, body weight, physical and gross appearances (particularly on the eyes, mucosa and skins) were monitored every day.
The animals were deeply anesthetized with pentobarbital and transcardially perfused with 20 ml 0.1 M cold PBS (pH 7.4) followed with 25 ml of cold 4% paraformaldehyde (PFA). Paw skin, eyelid, spleen, lymph nodes were dissected out. postfixed in 4% PFA for more than two hours, and cryoprotected in a 20% followed by 30% sucrose solution for 24 hours each at 4° C. Tissue samples were embedded in the optimal cutting temperature (OCT) and frozen before being serially cut into 20 μm sections and placed onto slides. Hematoxylin and eosin (H&E) staining was performed using standard procedures according to the manufacturer's instruction VITROVIEW™ H&E Stain Kit). To quantify amount of apoptotic cells, terminal deoxynucleotidyl transferase dUTP nick end labeling (TUNEL) assay, a method for detecting DNA fragmentation that results from apoptotic cells by labeling the terminal end of nucleic acids, was performed by following the protocol of Apo-BrdU DNA Fragmentation Assay Kit (Biovision). To estimate the total cell number in tissue, all nuclei were stained with propidium iodide. Digital photographs were captured under confocal fluorescent microscopy at x200 magnification (Zeiss LSM 700). The number of TUNEL-positive nuclei were counted and reported as a percentage over the number of total nuclei observed in the skin's epidermis layer.

MRGPRX4-GFP = MRGPRX4-GFP (Homo sapiens, UniProt Q96LA9); experiment: Receptor internalization assay, MRGPRX4-GFP HEK293 cells; assay type: cell-based; conditions: 37° C.
Sequence of MRGPRX4-GFP (Q96LA9 whole entry, the tested form may be a part): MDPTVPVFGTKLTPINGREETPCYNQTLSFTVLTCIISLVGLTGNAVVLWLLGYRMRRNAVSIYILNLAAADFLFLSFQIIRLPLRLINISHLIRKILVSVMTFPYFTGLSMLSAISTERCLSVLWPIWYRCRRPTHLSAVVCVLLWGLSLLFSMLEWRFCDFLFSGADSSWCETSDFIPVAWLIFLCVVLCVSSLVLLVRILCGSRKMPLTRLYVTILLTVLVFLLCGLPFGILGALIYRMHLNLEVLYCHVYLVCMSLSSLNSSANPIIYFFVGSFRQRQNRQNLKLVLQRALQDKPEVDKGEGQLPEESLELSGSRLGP
Method: (§1) To label the drug with red-fluorescent dye, […] of LTG was dissolved in 50 μl dimethyformamide (DMF) first, and further diluted with 450 μl reaction buffer (0.1M sodium bicarbonate buffer, pH9.0) to obtain LTG at a concentration of 7.8 mM. Then, 50 μl of Texas-red-conjugated sulfonyl chloride (Thermo Fisher Scientific, T1905) dissolved in DMF at 10 mg ml−1 was slowly added into LTG solution. The reaction was incubated at 4° C. for 1 hour with continuous stirring. The mixture was then diluted into cell culture medium for further use. LTG labeled with Texas Red dye can create bright red-fluorescence with excitation/emission maxima ˜595/615 nm. HEK293 cells stably expressing Mrgpra1-GFP, Mrgprc11-GFP or MRGPRX4-GFP fusion protein were grown in DMEM with 10% FBS. After 4-6 hours of serum starvation, cells were treated with either medium, dye alone, unlabeled LTG or Texas-Red-labeled LTG at 37° C. for 15 or 60 min. Cells were washed with PBS and fixed with 4% paraformaldehyde in PBS. The subcellular localization of Mrgpr-GFP or drug was visualized under a confocal fluorescence microscope with a 400× magnification (Zeiss LSM 700).

human dendritic cells = experiment: Calcium imaging of human dendritic cells; assay type: cell-based
Method: In initial experiments, HEK293 cells were plated on 100 μg/ml poly-D-lysine coated glass cover slips, and transiently transfected with vector containing Mrgprs gene, after 24-48 hours of culture, cells were loaded with Fura 2-acetomethoxy ester calcium indicator (0.5 μM, Molecular Probes) along with pluronic F-127 dispersing agent (0.1%, Molecular Probes) for 30 minutes in the dark at 37° C., then washed with calcium imaging buffer (CIB; NaCl 125 mM, KCl 3 mM, CaCl2 2.5 mM, MgCl2 0.6 mM, HEPES 10 mM, glucose 20 mM, NaHCO3 1.2 mM, sucrose 20 mM, brought to pH 7.4 with NaOH). Drugs were added to Fura 2-loaded cells and intracellular free calcium was measured using 340 nm and 380 nm excitation wavelengths with emission measured at 520 nm with a microscope based imaging system (Nikon Eclipse TE200). Changes in emission fluorescence ratios at 340/380 nm excitation were continuously monitored at 1 second intervals. Later, experiments were performed using Mrgpra1-GFP, Mrgprc11-GFP and MRGPRX4-GFP stable cell lines to confirm the findings obtained from the transiently expressing cells.
Human Peripheral Blood Dendritic Cells from four different donors were purchased from Lonza (cc-2701) and […] Technologies (70041). […]

Mrgpra1 knockout mice = experiment: Dendritic cell adoptive transfer into Mrgpra1 KO mice with daily LTG; assay type: in vivo, mouse; conditions: Mrgpra1 KO animals who received WT dendritic cells; 7-10 days of LTG 50 mg kg−1
Method: Spleens from naïve 129S1 WT mice or Mrgpra1−/− mice were aseptically removed and DCs were isolated using mouse Pan Dendritic Cell isolation kit (Miltenyi Biotec) according to the manufacturer's manual. Briefly, single cell suspensions from spleen were generated by collagenase D/DNase I digestion as above mentioned. Then, cocktail of biotin-conjugated antibodies against non-dendritic cells followed by anti-biotin magnetic microbeads were added to the cell suspensions. Dendritic cells were separated from bead labelled non-dendritic cells using LS column. Dendritic cells freshly isolated either from WT mice or KO animals suspended in 200 μl Hanks' Balanced Salt Solution (HBSS) were injected intravenously (tail vein) into the naïve male Mrgpra1 knockout mice (2×10^6 cells/mouse) one day before starting daily LTG (50 mg kg^−1 body weight) administration.

Mrgprc11-GFP = biological target: T1, Mrgprc11-GFP (Mus musculus, UniProt Q8CIP3); experiment: Receptor internalization assay, Mrgprc11-GFP HEK293 cells; assay type: cell-based; conditions: data not shown
T1 construct: expressed in transfected cells
T1 sequence (Q8CIP3 1-322): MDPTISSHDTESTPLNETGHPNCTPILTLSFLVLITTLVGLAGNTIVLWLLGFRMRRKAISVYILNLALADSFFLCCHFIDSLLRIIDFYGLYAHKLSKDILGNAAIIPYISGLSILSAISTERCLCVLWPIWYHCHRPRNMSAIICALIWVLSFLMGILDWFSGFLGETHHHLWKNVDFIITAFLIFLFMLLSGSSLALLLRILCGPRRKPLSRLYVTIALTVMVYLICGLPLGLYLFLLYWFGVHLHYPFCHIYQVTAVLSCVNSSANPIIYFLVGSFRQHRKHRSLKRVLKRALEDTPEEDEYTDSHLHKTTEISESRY
Method: as §1

## Nc1nnc(-c2cccc(Cl)c2Cl)c(N)n1 [LTG, Lamotrigine]
129S1/SvImJ mice; LTG 50 mg kg−1 oral daily, by day 14, WT 129S1/SvImJ mice
  mortality rate: 60%
129S1/SvImJ mice; day 9, HET mice
  TUNEL-positive dead epithelial cells in paw: 45.99±1.84%
129S1/SvImJ mice; day 9, KO mice
  TUNEL-positive dead epithelial cells in paw: 6.10±1.63%
129S1/SvImJ mice; day 9, WT mice
  TUNEL-positive dead epithelial cells in paw: 48.74±5.94%
129S1/SvImJ mice; day 14 of LTG treatment, KO group
  survival: no mouse died
129S1/SvImJ mice; day 14 of LTG treatment, WT and HET groups
  mice survived: 30%
MRGPRX4-GFP
  internalization of MRGPRX4-GFP: can induce the internalization
Human dendritic cells
  cells activated (Ca2+ imaging): about 5%
Mrgpra1 knockout mice
  animals developing SJS-like eye manifestation: 64%
Mrgprc11-GFP
  internalization of Mrgprc11-GFP: did not induce the internalization

Reference: patent US11442059B2, “Method for treating a chronic itch condition by administering small molecule MrgprX4 antagonists” (The Johns Hopkins University, priority 2017, dated 2022)
